# Laboratory results reported in paper PMC12714728, “VHH antibody loop guides design of a synthetic macrocyclic peptide that potently blocks influenza virus membrane fusion” (npj Viruses, 2025).
# Values joined by “and” are separate entries in the source; they are usually repeats but may differ in a detail not shown here. Equal values may be shown once. Read-outs that look alike come from different tables or passages of the source.
# How the values were obtained:
# [1] = target: T1, H1/PR8 HA (A/Puerto Rico/8/1934 (H1N1)) (Influenza A virus, UniProt P03452); experiment: Trypsin susceptibility (TS) assay; type: biochemical; conditions: pH 5.0; 50 μM CP1 or 10 μM CR9114 Fab, 5 μM HA
# T1 construct: The HA ectodomain was expressed using a baculovirus expression system in Sf9 cells; gp67 signal peptide (N); thrombin site (C); BirA biotinylation site (C); trimerization domain (C); His-tag (C); made in house; host or cells: Sf9 cells (baculovirus)
# [2] = In vitro cell permeability / P-gp substrate assay; conditions: for Papp A→B: LLC-PK1, Papp AB, LLC-MDR1, apical to basolateral; for Papp B→A: LLC-PK1, Papp BA, LLC-MDR1, basolateral to apical
# [3] = target: H12N5 A/duck/Alberta/60/1976 HA; type: binding, influenza A virus
# [4] = test system: H5/Viet HA (A/Vietnam/1203/2004 (H5N1)); type: binding, influenza A virus
# [5] = target: H6N2 A/turkey/Massachusetts/3740/1965 HA; type: binding, influenza A virus
# [6] = target: H10N7 A/chicken/Germany/N/1949 HA (Influenza A virus, UniProt P12581); type: binding
# [7] = test system: H5/Viet virus (A/Vietnam/1203/2004 (H5N1))
# [8] = target: H14N5 A/mallard/Astrakhan/263/1982 HA (Influenza A virus, UniProt P26136); type: binding
# [9] = target: H16N3 A/black-headed gull/Sweden/4/1999 HA; type: binding, influenza A virus
# [10] = test system: group 1 H1/Cal, H1/NCa, and H5/Viet HAs; type: binding, influenza A virus
# [11] = test system: group 1 H1/Cal, H1/NCa, and H5/Viet HAs; type: binding, influenza A virus; remark: listed apart in the source
# [12] = test system: H1/Cal HA (H1N1 A/California/07/2009); type: binding, influenza A virus
# [13] = target: H7N7 A/Netherlands/219/2003 HA; type: binding, influenza A virus
# [14] = test system: H1N1 A/Brisbane/59/2007 (H1/Bri) HA; type: biochemical, influenza A virus; conditions: pH 5.25
# [15] = target: H3N2 A/Victoria/361/2011 HA; type: binding, influenza A virus
# [16] = target: H4N6 A/duck/Czechoslovakia/1956 HA (Influenza A virus, UniProt P19696); type: binding
# [17] = In vitro cell permeability assay; conditions: for efflux ratio: LLC-PK1, Efflux ratio BA/AB; for efflux ratio / Papp B→A: LLC-Parent; for Papp B→A: LLC-PK1, Papp BA, basolateral to apical
# [18] = target: H15N9 A/shearwater/W. Australia/2576/79 HA; type: binding, influenza A virus
# [19] = target: B/Massachusetts/02/2012 HA (Yamagata lineage); type: binding, influenza B virus
# [20] = target: H1N1 A/Solomon Islands/3/2006 HA; type: binding, influenza A virus
# [21] = target: H9N2 A/turkey/Wisconsin/1/1966 HA; type: binding, influenza A virus
# [22] = target: H1N1 A/duck/Alberta/345/1976 HA; type: binding, influenza A virus
# [23] = test system: H5/Viet HA (H5N1 A/Vietnam/1203/2004); type: binding, influenza A virus
# H2N2 A/Adachi/2/1957 HA = type: binding, influenza A virus
# [24] = target: H1/NCa HA (H1N1 A/New Caledonia/20/1999); type: binding, influenza A virus
# [25] = test system: H1/NCa HA (A/New Caledonia/20/1999 (H1N1)); type: binding, influenza A virus
# [26] = target: H3N2 A/Hong Kong/1/1968 HA (Influenza A virus, UniProt Q91MA7); type: binding
# [27] = target: H11N6 A/duck/England/1/1956 HA; type: binding, influenza A virus
# [28] = test system: group 2 or influenza B HAs; type: binding, influenza A and B viruses
# [29] = target: B/Brisbane/33/2008 HA (Victoria lineage); type: binding, influenza B virus
# [30] = test system: H1/Cal HA (A/California/07/2009 (H1N1)); type: binding, influenza A virus
# Sequence of H3N2 A/Hong Kong/1/1968 HA (Q91MA7 17-530 limits assumed): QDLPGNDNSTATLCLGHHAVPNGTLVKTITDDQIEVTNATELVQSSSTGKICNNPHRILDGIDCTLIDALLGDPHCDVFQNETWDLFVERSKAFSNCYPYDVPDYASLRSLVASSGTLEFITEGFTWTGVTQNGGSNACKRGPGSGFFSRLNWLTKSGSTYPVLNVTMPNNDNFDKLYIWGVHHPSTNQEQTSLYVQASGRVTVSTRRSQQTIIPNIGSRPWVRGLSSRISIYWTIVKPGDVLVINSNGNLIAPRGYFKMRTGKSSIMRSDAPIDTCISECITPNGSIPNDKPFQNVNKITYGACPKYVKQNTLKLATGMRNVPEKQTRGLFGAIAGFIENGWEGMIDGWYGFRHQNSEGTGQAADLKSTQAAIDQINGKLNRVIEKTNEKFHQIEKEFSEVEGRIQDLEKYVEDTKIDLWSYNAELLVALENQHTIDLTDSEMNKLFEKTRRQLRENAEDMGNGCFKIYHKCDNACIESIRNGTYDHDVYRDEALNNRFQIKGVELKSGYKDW
# Sequence of H10N7 A/chicken/Germany/N/1949 HA (P12581 17-524 limits assumed): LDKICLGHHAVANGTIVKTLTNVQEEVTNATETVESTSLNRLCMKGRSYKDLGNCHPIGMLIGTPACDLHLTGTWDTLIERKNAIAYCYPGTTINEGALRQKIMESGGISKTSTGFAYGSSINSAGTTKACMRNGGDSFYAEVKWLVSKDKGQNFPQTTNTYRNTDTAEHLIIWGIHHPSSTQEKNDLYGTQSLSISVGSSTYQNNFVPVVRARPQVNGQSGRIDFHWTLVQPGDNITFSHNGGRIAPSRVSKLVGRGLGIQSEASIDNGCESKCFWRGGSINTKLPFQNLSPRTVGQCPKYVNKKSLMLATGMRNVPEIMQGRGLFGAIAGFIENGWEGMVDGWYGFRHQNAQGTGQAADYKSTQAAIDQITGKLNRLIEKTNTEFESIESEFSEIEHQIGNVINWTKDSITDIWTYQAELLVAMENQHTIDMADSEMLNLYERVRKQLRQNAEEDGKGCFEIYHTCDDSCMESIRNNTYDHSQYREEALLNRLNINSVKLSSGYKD
# Sequence of H4N6 A/duck/Czechoslovakia/1956 HA (P19696 17-527 limits assumed): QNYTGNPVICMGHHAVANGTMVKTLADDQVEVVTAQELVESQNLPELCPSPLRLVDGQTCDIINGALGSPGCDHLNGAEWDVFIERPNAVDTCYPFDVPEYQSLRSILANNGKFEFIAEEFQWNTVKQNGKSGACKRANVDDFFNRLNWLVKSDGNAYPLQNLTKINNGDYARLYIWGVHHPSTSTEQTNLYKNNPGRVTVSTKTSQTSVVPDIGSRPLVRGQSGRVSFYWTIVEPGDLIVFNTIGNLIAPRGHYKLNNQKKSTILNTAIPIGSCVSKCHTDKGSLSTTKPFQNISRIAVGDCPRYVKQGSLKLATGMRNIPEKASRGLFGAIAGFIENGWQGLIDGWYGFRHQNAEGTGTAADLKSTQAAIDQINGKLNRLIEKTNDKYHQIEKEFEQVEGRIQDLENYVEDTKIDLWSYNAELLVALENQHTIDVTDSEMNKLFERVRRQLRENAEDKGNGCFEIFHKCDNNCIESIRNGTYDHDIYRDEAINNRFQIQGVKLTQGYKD
# T1 sequence (P03452 18-528 limits assumed): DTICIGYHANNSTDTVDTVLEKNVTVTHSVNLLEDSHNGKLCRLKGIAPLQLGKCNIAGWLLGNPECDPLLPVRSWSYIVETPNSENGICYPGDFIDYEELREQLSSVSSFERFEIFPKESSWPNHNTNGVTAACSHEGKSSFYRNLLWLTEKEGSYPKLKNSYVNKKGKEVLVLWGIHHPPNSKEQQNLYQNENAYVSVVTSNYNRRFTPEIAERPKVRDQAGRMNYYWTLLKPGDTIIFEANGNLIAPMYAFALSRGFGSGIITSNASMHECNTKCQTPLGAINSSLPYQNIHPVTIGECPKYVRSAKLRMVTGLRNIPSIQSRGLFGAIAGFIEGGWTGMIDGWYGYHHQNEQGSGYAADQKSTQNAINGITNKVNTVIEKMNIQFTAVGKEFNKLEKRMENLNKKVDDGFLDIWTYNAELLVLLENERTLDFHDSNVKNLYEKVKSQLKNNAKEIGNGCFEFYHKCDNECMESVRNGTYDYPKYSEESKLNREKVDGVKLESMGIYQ
# Sequence of H14N5 A/mallard/Astrakhan/263/1982 HA (P26136 18-531 limits assumed): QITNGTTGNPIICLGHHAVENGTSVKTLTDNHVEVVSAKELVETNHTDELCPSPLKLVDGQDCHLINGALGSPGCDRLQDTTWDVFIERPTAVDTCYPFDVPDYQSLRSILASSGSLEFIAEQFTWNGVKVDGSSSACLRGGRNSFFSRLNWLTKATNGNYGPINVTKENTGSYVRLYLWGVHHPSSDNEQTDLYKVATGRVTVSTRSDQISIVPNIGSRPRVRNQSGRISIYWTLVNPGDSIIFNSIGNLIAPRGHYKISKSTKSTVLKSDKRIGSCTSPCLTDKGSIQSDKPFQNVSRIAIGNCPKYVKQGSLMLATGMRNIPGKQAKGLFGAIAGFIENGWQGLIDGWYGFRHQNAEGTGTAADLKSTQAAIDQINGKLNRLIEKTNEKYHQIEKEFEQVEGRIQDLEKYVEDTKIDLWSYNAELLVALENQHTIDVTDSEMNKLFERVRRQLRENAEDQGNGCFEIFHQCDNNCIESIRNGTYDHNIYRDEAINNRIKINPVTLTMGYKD
smiles,measurement,setting,value
CSCC[C@@H]1NC(=O)CNC(=O)CNC(=O)[C@H](C)NC(=O)[C@H](C(C)C)NC(=O)CNC(=O)[C@H](CC(C)C)NC(=O)[C@@H]2CCCN2C(=O)[C@H](CC(=O)O)NC(=O)[C@H](CCC(=O)O)NC(=O)[C@H](Cc2ccc(O)cc2)NC(=O)[C@H](CC(C)C)NC(=O)[C@H](CO)NC(=O)[C@H](C(C)C)NC(=O)[C@H]2CCCN2C(=O)[C@@H]2CCCN2C(=O)[C@H](Cc2ccc(O)cc2)NC(=O)[C@H](C(C)C)NC(=O)CNC1=O [CP1],Protection of HA from low pH-induced conversion to trypsin-susceptible conformation,[1],inhibits the conversion of H1/PR8 HA to the post-fusion conformation
same,efflux ratio,"[2]; LLC-PK1, Efflux ratio BA/AB, LLC-MDR1, + 5 µM GF120918",1.36
same,efflux ratio,"[2]; LLC-PK1, Efflux ratio BA/AB, LLC-MDR1, no inhibitor",1.57
same,efflux ratio,"[2]; LLC-PK1, Efflux ratio, text: LLC-parent and LLC-MDR1, in the presence and absence of elacridar (GF120918)",< 2
same,Papp A→B,[2]; + 5 µM GF120918,0.23 ± 0.04 ×10⁻⁶ cm/s
same,Papp A→B,[2]; no inhibitor,0.21 ± 0.03 ×10⁻⁶ cm/s
same,Papp B→A,[2]; + 5 µM GF120918,0.32 ± 0.02 ×10⁻⁶ cm/s
same,Papp B→A,[2]; no inhibitor,0.33 ± 0.08 ×10⁻⁶ cm/s
same,KD,[3],N.B.
same,IC50,[4],840 ± 130 nM
same,Kd,[5],91 nM
same,KD,[6],N.B.
same,Neutralization activity against H5N1 virus (in words),[7],modest activity
same,KD,[8],N.B.
same,Kd,[9],1100 nM
same,half-life / residence time t1/2 (range over HAs),[10],5 to 46 s
same,slower dissociation (koff) compared to LP1,[10],9- to 180 fold
same,improvement in binding in AlphaLISA versus LP1,[11],60- to 440 fold
same,IC50,[11]; read-out: IC50 in AlphaLISA (range over HAs),52 to 840 nM
same,improvement in binding affinity versus linear peptide LP1,[12],60 fold
same,Kd,[12]; read-out: KD,54 nM
same,Kd,[12]; read-out: KD by SPR,50 nM
same,KD,[13],N.B.
same,IC50,[14],49 nM and 50 nM
same,KD,[15],N.B.
same,KD,[16],N.B.
same,recovery,[17]; LLC-PK1,92.9%
same,efflux ratio,[17]; + 5 µM GF120918,2.97
same,efflux ratio,[17]; no inhibitor,2.55
same,Papp B→A,[17]; + 5 µM GF120918,0.22 ± 0.12 ×10⁻⁶ cm/s
same,Papp B→A,[17]; no inhibitor,0.19 ± 0.09 ×10⁻⁶ cm/s
same,Papp A→B,"[17]; LLC-PK1, pH 7.4",0.07 ± 0.01 ×10⁻⁶ cm/s
same,KD,[18],N.B.
same,KD,[19],N.B.
same,Kd,[20],128 nM
same,Kd,[21],> 1000 nM
same,Kd,[22],101 nM
same,faster koff rate against H5 versus H1 HA,[23],14 fold
same,Kd,H2N2 A/Adachi/2/1957 HA,> 1000 nM
same,Kd,[24],23 nM
same,IC50,[25],52 ± 20 nM
same,KD,[26],N.B.
same,Kd,[27],2300 nM
same,Binding against group 2 or influenza B HAs in SPR,[28],no binding
same,KD,[29],N.B.
same,IC50,[30],55 nM
